According to patent publication US20210085640A1, “ACYLATED CATECHIN POLYPHENOLS AND METHODS OF THEIR USE FOR THE TREATMENT OF CANCER” (Flagship Pioneering Innovations V, Inc., priority 2018, published 2021):

Assays:
Assay type in all cases: cell-based
A549 lung cancer cells = assay: Cancer cell survival (CellTiter-Glo), A549; conditions: Homo sapiens, 72 h
Summary of the method: (§1)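 Cells were seeded at 4×10^3 cells/well and left overnight at 37 C, 5% CO2, then exposed in triplicate to nine compound concentrations for 72 h. Dosing solutions were made at 10× final (1 μM-10 mM fatty acids, 100 nM-1 mM other compounds). CellTiter-Glo luminescence, normalised to untreated and medium-only wells, gave IC50.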

MCF7 breast cancer cells = assay: Cancer cell survival (CellTiter-Glo), MCF7; conditions: Homo sapiens, 72 h
Summary of the method: as §1

A-431 skin cancer cells = assay: Cancer cell survival (CellTiter-Glo), A-431; conditions: Homo sapiens, A-431 cells, 72 h
Summary of the method: as §1

[1] = tested on: HCT 116 colorectal cancer cells; assay: Cancer cell survival (CellTiter-Glo), HCT 116; conditions: Homo sapiens, HCT 116 cells, 72 h
Summary of the method: as §1

T24 bladder cancer cells = assay: Cancer cell survival (CellTiter-Glo), T24; conditions: Homo sapiens
Summary of the method: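 T24 cells seeded at 4×10^3 cells/well overnight, then exposed 72 h at 37 C, 5% CO2 to nine concentrations in triplicate. Survival measured by CellTiter-Glo luminescence relative to untreated and medium controls; IC50 derived.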

[2] = tested on: Daudi lymphoma cancer cells; assay: Cancer cell survival (CellTiter-Glo), Daudi; conditions: Homo sapiens, 72 h
Summary of the method: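 Daudi cells (4×10^3/well) were exposed for 72 h at 37 °C to nine concentrations of compound, added as 10× solutions spanning 1 μM–10 mM (fatty acids) or 100 nM–1 mM (others). CellTiter-Glo luminescence gave % survival versus untreated, medium-blank corrected; IC50 derived.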

AGS stomach cancer cells = assay: Cancer cell survival (CellTiter-Glo), AGS
Summary of the method: as §1

[3] = tested on: PC-3 prostate cancer cells; assay: Cancer cell survival (CellTiter-Glo), PC-3; conditions: Homo sapiens, PC-3 cells, 72 h
Summary of the method: as §1

[4] = 317 μM, read-out: Cell survival at given concentration
[5] = 1 mM, read-out: Cell survival at given concentration
[6] = 3 mM, read-out: Cell survival at given concentration
[7] = 10 mM, read-out: Cell survival at given concentration

## CCCC(=O)O [butyrate]
A549 lung cancer cells; 1 μM, Table 7.2, read-out: Cell survival at given concentration
  viability at 1 µM: 95%
A549 lung cancer cells; 3 μM, Table 7.2, read-out: Cell survival at given concentration
  viability at 3 µM: 96%
A549 lung cancer cells; 10 μM, Table 7.2, read-out: Cell survival at given concentration
  viability at 10 µM: 99%
A549 lung cancer cells; 32 μM, Table 7.2, read-out: Cell survival at given concentration
  viability at 32 µM: 100%
A549 lung cancer cells; 100 μM, Table 7.2, read-out: Cell survival at given concentration
  viability at 100 µM: 102%
A549 lung cancer cells; [4]
  viability at 317 µM: 101%
A549 lung cancer cells; [5]
  viability at 1000 µM: 90%
A549 lung cancer cells; [6]
  viability at 3000 µM: 67%
A549 lung cancer cells; [7]
  viability at 10000 µM: 27%
A549 lung cancer cells; Table 7.2
  IC50: 5.07 mM
MCF7 breast cancer cells; 1 μM, Table 5.2, read-out: Cell survival at given concentration
  viability at 1 µM: 101%
MCF7 breast cancer cells; 3 μM, Table 5.2, read-out: Cell survival at given concentration
  viability at 3 µM: 103%
MCF7 breast cancer cells; 10 μM, Table 5.2, read-out: Cell survival at given concentration
  viability at 10 µM: 102%
MCF7 breast cancer cells; 32 μM, Table 5.2, read-out: Cell survival at given concentration
  viability at 32 µM: 100%
MCF7 breast cancer cells; 100 μM, Table 5.2, read-out: Cell survival at given concentration
  viability at 100 µM: 104%
MCF7 breast cancer cells; [4]
  viability at 317 µM: 98%
MCF7 breast cancer cells; [5]
  viability at 1000 µM: 82%
MCF7 breast cancer cells; [6]
  viability at 3000 µM: 54%
MCF7 breast cancer cells; [7]
  viability at 10000 µM: 24%
MCF7 breast cancer cells; Table 5.2
  IC50: 3.59 mM
A-431 skin cancer cells; 1 μM, Table 9.2, read-out: Cell survival at given concentration
  viability at 1 µM: 103%
A-431 skin cancer cells; 3 μM, Table 9.2, read-out: Cell survival at given concentration
  viability at 3 µM: 102%
A-431 skin cancer cells; 10 μM, Table 9.2, read-out: Cell survival at given concentration
  viability at 10 µM: 102%
A-431 skin cancer cells; 32 μM, Table 9.2, read-out: Cell survival at given concentration
  viability at 32 µM: 103%
A-431 skin cancer cells; 100 μM, Table 9.2, read-out: Cell survival at given concentration
  viability at 100 µM: 99%
A-431 skin cancer cells; [4]
  viability at 317 µM: 96%
A-431 skin cancer cells; [5]
  viability at 1000 µM: 85%
A-431 skin cancer cells; [6]
  viability at 3000 µM: 67%
A-431 skin cancer cells; [7]
  viability at 10000 µM: 37%
A-431 skin cancer cells; Table 9.2
  IC50: 6.32 mM
[1]; 1 μM, Table 6.2, read-out: Cell survival at given concentration
  viability at 1 µM: 98%
[1]; 3 μM, Table 6.2, read-out: Cell survival at given concentration
  viability at 3 µM: 99%
[1]; 10 μM, Table 6.2, read-out: Cell survival at given concentration
  viability at 10 µM: 102%
[1]; 32 μM, Table 6.2, read-out: Cell survival at given concentration
  viability at 32 µM: 101%
[1]; 100 μM, Table 6.2, read-out: Cell survival at given concentration
  viability at 100 µM: 97%
[1]; [4]
  viability at 317 µM: 92%
[1]; [5]
  viability at 1000 µM: 66%
[1]; [6]
  viability at 3000 µM: 18%
[1]; [7]
  viability at 10000 µM: 1%
[1]; Table 6.2
  IC50: 1.44 mM
T24 bladder cancer cells; T-24, 1 μM, 72 h, Table 3.2, read-out: Cell survival at given concentration
  viability at 1 µM: 98%
T24 bladder cancer cells; T-24, 3 μM, 72 h, Table 3.2, read-out: Cell survival at given concentration
  viability at 3 µM: 100%
T24 bladder cancer cells; T-24, 10 μM, 72 h, Table 3.2, read-out: Cell survival at given concentration
  viability at 10 µM: 105%
T24 bladder cancer cells; T-24, 32 μM, 72 h, Table 3.2, read-out: Cell survival at given concentration
  viability at 32 µM: 99%
T24 bladder cancer cells; T-24, 100 μM, 72 h, Table 3.2, read-out: Cell survival at given concentration
  viability at 100 µM: 97%
T24 bladder cancer cells; T-24, 317 μM, 72 h, read-out: Cell survival at given concentration
  viability at 317 µM: 90%
T24 bladder cancer cells; T-24, 1 mM, 72 h, read-out: Cell survival at given concentration
  viability at 1000 µM: 84%
T24 bladder cancer cells; T-24, 3 mM, 72 h, read-out: Cell survival at given concentration
  viability at 3000 µM: 60%
T24 bladder cancer cells; T-24, 10 mM, 72 h, read-out: Cell survival at given concentration
  viability at 10000 µM: 27%
T24 bladder cancer cells; T-24, 72 h, Table 3.2, read-out: IC50
  IC50: 4.72 mM
[2]; 1 μM, Table 4.2, read-out: Cell survival at given concentration
  viability at 1 µM: 101%
[2]; 3 μM, Table 4.2, read-out: Cell survival at given concentration
  viability at 3 µM: 99%
[2]; 10 μM, Table 4.2, read-out: Cell survival at given concentration
  viability at 10 µM: 100%
[2]; 32 μM, Table 4.2, read-out: Cell survival at given concentration
  viability at 32 µM: 100%
[2]; 100 μM, Table 4.2, read-out: Cell survival at given concentration
  viability at 100 µM: 99%
[2]; [4]
  viability at 317 µM: 87%
[2]; [5]
  viability at 1000 µM: 46%
[2]; [6]
  viability at 3000 µM: 19%
[2]; [7]
  viability at 10000 µM: 13%
[2]; Table 4.2
  IC50: 0.912 mM
AGS stomach cancer cells; 72 h, 1 μM, Table 10.2, read-out: Cell survival at given concentration
  viability at 1 µM: 100%
AGS stomach cancer cells; 72 h, 3 μM, Table 10.2, read-out: Cell survival at given concentration
  viability at 3 µM: 100%
AGS stomach cancer cells; 72 h, 10 μM, Table 10.2, read-out: Cell survival at given concentration
  viability at 10 µM: 102%
AGS stomach cancer cells; 72 h, 32 μM, Table 10.2, read-out: Cell survival at given concentration
  viability at 32 µM: 101%
AGS stomach cancer cells; 72 h, 100 μM, Table 10.2, read-out: Cell survival at given concentration
  viability at 100 µM: 104%
AGS stomach cancer cells; 72 h, 317 μM, read-out: Cell survival at given concentration
  viability at 317 µM: 105%
AGS stomach cancer cells; 72 h, 1 mM, read-out: Cell survival at given concentration
  viability at 1000 µM: 91%
AGS stomach cancer cells; 72 h, 3 mM, read-out: Cell survival at given concentration
  viability at 3000 µM: 65%
AGS stomach cancer cells; 72 h, 10 mM, read-out: Cell survival at given concentration
  viability at 10000 µM: 11%
AGS stomach cancer cells; Table 10.2
  IC50: 4.46 mM
[3]; 1 μM, Table 8.2, read-out: Cell survival at given concentration
  viability at 1 µM: 100%
[3]; 3 μM, Table 8.2, read-out: Cell survival at given concentration
  viability at 3 µM: 99%
[3]; 10 μM, Table 8.2, read-out: Cell survival at given concentration
  viability at 10 µM: 100%
[3]; 32 μM, Table 8.2, read-out: Cell survival at given concentration
  viability at 32 µM: 100%
[3]; 100 μM, Table 8.2, read-out: Cell survival at given concentration
  viability at 100 µM: 98%
[3]; [4]
  viability at 317 µM: 93%
[3]; [5]
  viability at 1000 µM: 82%
[3]; [6]
  viability at 3000 µM: 66%
[3]; [7]
  viability at 10000 µM: 40%
[3]; Table 8.2
  IC50: 6.44 mM
